A short description of data set [1]: Pharmacokinetic study of compounds on ICR mice. The format is in vivo. The following applies: mouse, po, male ICR mice, plasma; for Cmax / Tmax / half-life: 10 mg-kg^1 by gavage; for AUC(0-t): 10 mg/kg-kg^1 by gavage, read-out: AUC0-24. As for the experimental part:
Each compound is prepared with DMSO into a 10 mg/mL stock solution.
Preparation of mixed solvent: Tween 80: PEG400: Water=1:9:90 (v/v/v)
450 μl of the compound DMSO stock solution with a concentration of 10 mg/nmL is accurately sucked into a glass bottle, and added with an appropriate volume of DMSO and mixed solvent, wherein a ratio of the solvent in the final formulation is DMSO: mixed solvent (v/v)=10:90. The mixed solution is vortexed (or ultrasonically treated), and dispersed uniformly to obtain 4.5 mL. administration test solutions with a concentration of 1 mg/nL, respectively.
Male 6-10 week old ICR mice (sourced from: Beijing Vital River Laboratory Animal Technology Co., Ltd.) are taken, 6 mice in each group. The mice are fasted overnight and fed 4 h after the administration. On the day of the experiment, the mice are administrated with 10 mg-kg^1 of compound test solution by gavage. After administration, about 100 μL of blood is harvested from the orbits of the mice at 0 min, 5 mmn, 15 mmn, 30 min, 14 h 2 h, 4 h, 8 h, and 24 h, and placed in EDTA-K2 anticoagulant tubes. The whole blood sample is centrifuged at 1500 to 1600 g for 10 mm, and the plasma obtained by separation is stored in a refrigerator at −40 to −20° C. for biological sample analysis. The blood drug concentration is determined by an LC-MS/MS method.
A non-compartmental model in Pharsight Phoenix 7.0 is used to calculate pharmacokinetic parameters. The specific results are shown in 5 the table below.

The target in data set [2] is T1, AXL kinase (Homo sapiens, UniProt P30530).
T1 construct: purchased Carna 08-107
T1 sequence (P30530 473-894 limits assumed): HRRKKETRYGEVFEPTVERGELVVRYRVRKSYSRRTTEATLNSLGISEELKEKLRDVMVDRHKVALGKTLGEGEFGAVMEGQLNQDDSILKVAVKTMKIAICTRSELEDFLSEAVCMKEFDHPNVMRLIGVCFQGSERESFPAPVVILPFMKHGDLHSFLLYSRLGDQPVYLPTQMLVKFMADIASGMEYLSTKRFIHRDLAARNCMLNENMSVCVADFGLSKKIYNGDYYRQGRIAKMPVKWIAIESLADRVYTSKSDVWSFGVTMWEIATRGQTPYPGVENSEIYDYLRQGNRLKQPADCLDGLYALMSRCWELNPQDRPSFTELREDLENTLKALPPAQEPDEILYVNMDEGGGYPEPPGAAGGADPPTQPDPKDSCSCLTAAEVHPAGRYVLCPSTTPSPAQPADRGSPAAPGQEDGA
The data set can be described thus: Inhibitory activity of compound against AXL kinase (HTRF KinEASE). The format is biochemical. The following applies: AXL enzyme (Carna, 08-107), ATP 15 μM; "<" means below detection limit of the test. In short, it runs like this:
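AXL enzyme (final 0.016 ng/uL) was preincubated with compound (8 concentrations from 1 μM, ½ log steps) for 15 min at room temperature, then reacted with TK Substrate 3-biotin (final 1) and ATP (final 15 μM) for 45 min at 25° C. Phosphorylation was read by HTRF (TK antibody-cryptate, streptavidin-XL665, 1 h); IC50 from variable-slope dose-response fit.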
Background: TR-FRET usually uses a lanthanide donor and a delayed reading to cut background.

Regarding `CP(C)(=O)c1c(Nc2nc(Nc3ccc4c(c3)CC[C@@H](N3CCCC3)CC4)ncc2Cl)ccc2nccnc12` [Example 47, (S)-(6-((5-chloro-2-((7-(pyrrolidin-1-yl)-6,7,8,9-tetrahydro-5H-benzo[7]annulen-2-yl)amino)pyrimidin-4-yl)amino)quinoxalin-5-yl)dimethyl phosphine oxide], in data set [1], the concentration peaked (Cmax) at 69 ng/mL, the Tmax came out at 1 h, the half-life is 2.06 h and the AUC(0-t) was 307 ng·h/mL. In data set [2], this compound yielded an IC50 of 1.72 nM.
`CNC(=O)c1cc(F)ccc1Nc1nc(Nc2ccc3c(c2)CC[C@@H](N2CCCC2)CC3)ncc1Cl` [Example 19, (S)-2-((5-chloro-2-((7-(pyrrolidin-1-yl)-6,7,8,9-tetrahydro-5H-benzo[7]annulen-2-yl)amino)pyrimidin-4-yl)amino)-5-fluoro-N-methylhenzamide]: in data set [1], the Cmax was determined as 342 ng/mL, the Tmax worked out at 1 h, the half-life is 3.05 h and the AUC(0-t) came out at 3540 ng·h/mL. The compound also displayed an IC50 in data set [2] of 0.11 nM.
For `COCc1ccc(Nc2nc(Nc3ccc4c(c3)CC[C@@H](N3CCCC3)CC4)ncc2Cl)c(P(C)(C)=O)c1` [Example 115, (S)-(2-((5-chloro-2-((7-(pyrrolidin-1-yl)-6,7,8,9-tetrahydro-5H-benzo[7]annulen-2-yl)amino)pyrimidin-4-yl)amino)-5-(methoxymethyl)phenyl)dimethylphosphine oxide], in data set [1], the Cmax was 324 ng/mL, the Tmax was 2.17 h and the AUC(0-t) amounted to 1300 ng·h/mL. In data set [2], this compound gave an IC50 of 4.89 nM.
On to `Cc1ccc(Nc2nc(Nc3ccc4c(c3)CC[C@@H](N3CCCC3)CC4)ncc2Cl)c(P(C)(C)=O)c1` [Example 53, (S)-(2-((5-chloro-2-((7-(pyrrolidin-1-yl)-6,7,8,9-tetrahydro-5H-benzo[7]annulen-2-yl)amino)pyrimidin-4-yl)amino)-5-methylphenyl) dimethyl phosphine oxide], for which, in data set [1], the Cmax was 676 ng/mL, the Tmax stood at 1 h, the half-life was 1.81 h and the AUC(0-t) worked out at 2200 ng·h/mL. This compound also yielded an IC50 in data set [2] of 1.86 nM.
Turning to `CP(C)(=O)c1ccccc1Nc1nc(Nc2ccc3c(c2)CC[C@@H](N2CCCC2)CC3)ncc1Cl` [Example 10, (S)-(2-((5-chloro-2-((7-(pyrrolidin-1-yl)-6,7,8,9-tetrahydro-5H-benzo[7]annulen-2-yl)amino)pyrimidin-4-yl)amino)phenyl)dimethyl phosphine oxide], in data set [1], the concentration peaked (Cmax) at 349 ng/mL, the Tmax stood at 0.25 h, the half-life is 3.33 h and the AUC(0-t) came to 1000 ng·h/mL. The compound also returned an IC50 in data set [2] of 2.35 nM.

A word on the Cmax: it is the highest concentration seen after dosing. Usually Tmax stands for the time at which the peak concentration occurs. The term half-life denotes the time needed for the level to fall by half in the phase considered. A low value points to fast loss. In general, IC50 refers to the concentration that gives 50% inhibition. A higher IC50 goes with lower potency.

Values taken from patent publication US20230227484A1, “PYRIMIDINE COMPOUND AS AXL INHIBITOR” (NANJING CHIA TAI TIANQING PHARMACEUTICAL CO., LTD., priority 2020, published 2023).
